This note sets out measurements from patent US10512269B2, “Herbicidal compounds” (Syngenta Participations AG, priority 2015, dated 2019).

Holding throughout (experiment): B1 Post-emergence efficacy, glasshouse pot test
What all share (assay type): in vivo
What all share (conditions): post-emergence spray, evaluated after 13 days

In one assay the test system is Solanum nigrum (SOLNI). The procedure:
(§1) Seeds of a variety of test species are sown in standard soil in pots: —Solanum nigrum (SOLNI), Amaranthus retoflexus (AMARE), Setaria faberi (SETFA), Echinochloa crus-galli (ECHCG), Ipomoea hederacea (IPOHE), Lolium perenne (LOLPE). After 8 days cultivation (post-emergence) under controlled conditions in a glasshouse (at 24/16° C., day/night; 14 hours light; 65% humidity), the plants are sprayed with an aqueous spray solution derived from the formulation of the technical active ingredient in acetone/water (50:50) solution containing 0.5% Tween 20 (polyoxyethelyene sorbitan monolaurate, CAS RN 9005-64-5). Compounds are applied at 1000 g/ha and 250 g/ha. The test plants are then grown in a glasshouse under controlled conditions in a glasshouse (at 24/16° C., day/night; 14 hours light; 65% humidity) and watered twice daily. After 13 days, the test is evaluated for the percentage damage caused to the plant. The biological activities are assessed on a five point scale (5=80-100%; 4=60-79%; 3=40-59%; 2=20-39%; 1=0-19%). A blank value in the table is indicative that the compound was not tested on that species.

The test system of assay [1] is Ipomoea hederacea (IPOHE). The procedure:
as §1

The subject of assay [2] is Echinochloa crus-galli (ECHCG). The procedure:
as §1

Assay [3] relates to Amaranthus retoflexus (AMARE). Here is the method: as §1
In a further assay the test system is Lolium perenne (LOLPE). Here is the method:
as §1

The subject of a further assay is Setaria faberi (SETFA). Here is the method:
as §1

`O=S1(=O)C(c2c(Cl)ccc(Cl)c2OCc2ccccc2)=C(O)c2scnc2N1CC(F)F` [Compound 13.22]: the entries for the “percentage damage caused to the plant, five point scale, SOLNI” value (“percentage damage caused … SOLNI” below) in the assay on Solanum nigrum (SOLNI) (250 g/ha) and in the assay with Solanum nigrum (SOLNI) (1000 g/ha) were 3 (3=40-59%) and 4 (4=60-79%), respectively. Also, the “percentage damage caused to the plant, five point scale, IPOHE” value (shortened to “percentage damage caused … IPOHE”) in assay [1] (250 g/ha) is listed as 4 (4=60-79%); in assay [1] (1000 g/ha), 5 (5=80-100%). Besides, the results for the “percentage damage caused to the plant, five point scale, ECHCG” value (“percentage damage caused … ECHCG” for short) in assay [2] (250 g/ha) and in assay [2] (1000 g/ha) were 1 (1=0-19%) and 2 (2=20-39%), respectively. In addition, the “percentage damage caused to the plant, five point scale, AMARE” value (“percentage damage caused … AMARE” below) in assay [3] (250 g/ha) is 3 (3=40-59%); in assay [3] (1000 g/ha), 2 (2=20-39%). Moreover, the “percentage damage caused to the plant, five point scale, LOLPE” value (shortened to “percentage damage caused … LOLPE”) with Lolium perenne (LOLPE) (250 g/ha) and in the assay on Lolium perenne (LOLPE) (1000 g/ha) was 2 (2=20-39%) each time. In addition, the results for the “percentage damage caused to the plant, five point scale, SETFA” value (“percentage damage caused … SETFA” for short) with Setaria faberi (SETFA) (250 g/ha) and with Setaria faberi (SETFA) (1000 g/ha) were 1 (1=0-19%) and 2 (2=20-39%), respectively.
For `C#CCn1c(=O)c(-c2c(Cl)ccc(Cl)c2OCc2cnc(Cl)s2)c(O)c2scnc21` [Compound 1.19, 6-[3,6-dichloro-2-[(2-chlorothiazol-5-yl)methoxy]phenyl]-7-hydroxy-4-prop-2-ynyl-thiazolo[4,5-b]pyridin-5-one], the “percentage damage caused … SOLNI” value with Solanum nigrum (SOLNI) (250 g/ha) and in the assay on Solanum nigrum (SOLNI) (1000 g/ha) was 5 (5=80-100%) in each case. Besides, the “percentage damage caused … IPOHE” value in assay [1] (250 g/ha) and in assay [1] (1000 g/ha) was 5 (5=80-100%) throughout. Further, the “percentage damage caused … ECHCG” value in assay [2] (250 g/ha) and in assay [2] (1000 g/ha) was 5 (5=80-100%) in each case. For the same compound, the “percentage damage caused … AMARE” value in assay [3] (250 g/ha) and in assay [3] (1000 g/ha) was 5 (5=80-100%) in each case. In addition, the “percentage damage caused … LOLPE” value in the assay with Lolium perenne (LOLPE) (250 g/ha) and with Lolium perenne (LOLPE) (1000 g/ha) was 5 (5=80-100%) in each case. The “percentage damage caused … SETFA” value in the assay with Setaria faberi (SETFA) (250 g/ha) and with Setaria faberi (SETFA) (1000 g/ha) was 5 (5=80-100%) throughout.
`C#CCn1c(=O)c(-c2c(F)ccc(Cl)c2OCc2ccccc2)c(O)c2csnc21` [Compound 15.22]: the “percentage damage caused … SOLNI” value is on record as 4 (4=60-79%) in the assay with Solanum nigrum (SOLNI) (250 g/ha) and 5 (5=80-100%) with Solanum nigrum (SOLNI) (1000 g/ha). Also, the figures for the “percentage damage caused … IPOHE” value in assay [1] (250 g/ha) and in assay [1] (1000 g/ha) were 4 (4=60-79%) and 3 (3=40-59%), respectively. The “percentage damage caused … ECHCG” value in assay [2] (250 g/ha) is reported as 2 (2=20-39%); in assay [2] (1000 g/ha), 3 (3=40-59%). Also, the “percentage damage caused … AMARE” value in assay [3] (250 g/ha) is 4 (4=60-79%); in assay [3] (1000 g/ha), 5 (5=80-100%). In addition, the “percentage damage caused … LOLPE” value is on record as 3 (3=40-59%) in the assay on Lolium perenne (LOLPE) (250 g/ha) and 4 (4=60-79%) in the assay with Lolium perenne (LOLPE) (1000 g/ha). Also, the results for the “percentage damage caused … SETFA” value in the assay with Setaria faberi (SETFA) (250 g/ha) and with Setaria faberi (SETFA) (1000 g/ha) were 1 (1=0-19%) and 3 (3=40-59%), respectively.
Turning to `C#CCN1c2ncsc2C(O)=C(c2c(Cl)ccc(Cl)c2OCc2ccccc2)S1(=O)=O` [Compound 5.22], the “percentage damage caused … SOLNI” value with Solanum nigrum (SOLNI) (250 g/ha) and with Solanum nigrum (SOLNI) (1000 g/ha) was 1 (1=0-19%) in each case. Besides, the “percentage damage caused … IPOHE” value in assay [1] (250 g/ha) and in assay [1] (1000 g/ha) was 2 (2=20-39%) in each case. Moreover, the “percentage damage caused … ECHCG” value in assay [2] (250 g/ha) and in assay [2] (1000 g/ha) was 2 (2=20-39%) in each case. Besides, the “percentage damage caused … AMARE” value in assay [3] (250 g/ha) was 2 (2=20-39%); in assay [3] (1000 g/ha) it was 1 (1=0-19%). For the same compound, the “percentage damage caused … LOLPE” value with Lolium perenne (LOLPE) (250 g/ha) and with Lolium perenne (LOLPE) (1000 g/ha) was 2 (2=20-39%) each time. Further, the “percentage damage caused … SETFA” value is reported as 1 (1=0-19%) with Setaria faberi (SETFA) (250 g/ha) and 2 (2=20-39%) with Setaria faberi (SETFA) (1000 g/ha).
`C#CCn1c(=O)c(-c2c(Cl)ccc(Cl)c2OCc2ccccc2)c(O)c2nsnc21` [Compound 9.22, 6-(2-benzyloxy-3,6-dichloro-phenyl)-7-hydroxy-4-prop-2-ynyl-[1,2,5]thiadiazolo[3,4-b]pyridin-5-one]: the “percentage damage caused … SOLNI” value with Solanum nigrum (SOLNI) (250 g/ha) is on record as 4 (4=60-79%); with Solanum nigrum (SOLNI) (1000 g/ha), 5 (5=80-100%). The “percentage damage caused … IPOHE” value in assay [1] (250 g/ha) and in assay [1] (1000 g/ha) was 5 (5=80-100%) throughout. The “percentage damage caused … ECHCG” value is listed as 2 (2=20-39%) in assay [2] (250 g/ha) and 3 (3=40-59%) in assay [2] (1000 g/ha). The entries for the “percentage damage caused … AMARE” value in assay [3] (250 g/ha) and in assay [3] (1000 g/ha) were 4 (4=60-79%) and 5 (5=80-100%), respectively. The “percentage damage caused … LOLPE” value with Lolium perenne (LOLPE) (250 g/ha) is given as 4 (4=60-79%); in the assay with Lolium perenne (LOLPE) (1000 g/ha), 5 (5=80-100%). For the same compound, the “percentage damage caused … SETFA” value was 2 (2=20-39%) with Setaria faberi (SETFA) (250 g/ha) and 5 (5=80-100%) in the assay with Setaria faberi (SETFA) (1000 g/ha).
For the compound `O=c1c(-c2c(Cl)ccc(Cl)c2OCc2cnc(Cl)s2)c(O)c2scnc2n1CC(F)F` [Compound 3.19], the “percentage damage caused … SOLNI” value in the assay with Solanum nigrum (SOLNI) (250 g/ha) and with Solanum nigrum (SOLNI) (1000 g/ha) was 5 (5=80-100%) throughout. Also, the “percentage damage caused … IPOHE” value in assay [1] (250 g/ha) and in assay [1] (1000 g/ha) was 5 (5=80-100%) in each case. The “percentage damage caused … ECHCG” value in assay [2] (250 g/ha) was 4 (4=60-79%); in assay [2] (1000 g/ha), 5 (5=80-100%). The “percentage damage caused … AMARE” value in assay [3] (250 g/ha) and in assay [3] (1000 g/ha) was 5 (5=80-100%) in each case. In addition, the “percentage damage caused … LOLPE” value in the assay on Lolium perenne (LOLPE) (250 g/ha) and in the assay with Lolium perenne (LOLPE) (1000 g/ha) was 5 (5=80-100%) throughout. Further, the “percentage damage caused … SETFA” value in the assay with Setaria faberi (SETFA) (250 g/ha) and with Setaria faberi (SETFA) (1000 g/ha) was 5 (5=80-100%) throughout.
